Test results from ChEMBL document CHEMBL1147954, “Synthesis and antiproliferative activity of some novel derivatives of diospyrin, a plant-derived naphthoquinonoid” (Bioorg Med Chem, 2007).
pIC50: −log10 of the molar value.

Assays:
A-375 = assay: Cytotoxicity against human A375 cells after 24 hrs by MTT assay; assay type: functional, cell-based; details: A-375, 24 h
HEp-2 = assay: Cytotoxicity against human Hep2 cells after 24 hrs by MTT assay; assay type: functional, cell-based; details: HEp-2, 24 h
[1] = Cytotoxicity against mouse EAC cells after 24 hrs by MTT assay; assay type: functional, cell-based; details: Ehrlich
PBMC = assay: Cytotoxicity against human PBMCs after 24 hrs by MTT assay; assay type: cell-based

Compound COc1cc(C)cc2c1C(=O)C1OC1(c1c(C)cc3c(c1OC)C(=O)C1OC1C3=O)C2=O (stereo unspecified) has a pIC50 (A-375) of 7.52, a pIC50 (HEp-2) of 6.68 and a pIC50 [1] of 7.05. For the same compound, the pIC50 (PBMC) was 4.01.

Work on COc1cc(C)cc2c1C(=O)C=C(c1c(C)cc3c(c1OC)C(=O)C(NCCO)=CC3=O)C2=O yielded a pIC50 (A-375) of 5.50, a pIC50 (HEp-2) of 5.85 and a pIC50 [1] of 5.97. It also gave a pIC50 (PBMC) of 4.66.

Cc1cc(O)c2c(c1)C(=O)C(c1c(C)cc3c(c1O)C(=O)C=CC3=O)=CC2=O [DIOSPYRIN] gave a pIC50 (A-375) of 6.09, a pIC50 (HEp-2) of 5.45 and a pIC50 [1] of 6.08. It also gave a pIC50 (PBMC) of 4.11.

With CCOc1cc(C)cc2c(O)c(-c3c(C)cc4c(O)ccc(O)c4c3OCC)cc(O)c12 the pIC50 (A-375) was 6.02, the pIC50 (HEp-2) was 5.78 and the pIC50 [1] was 6.41. The pIC50 (PBMC) was 4.22.

CCOc1cc(C)cc2c1C(=O)C=C(c1c(C)cc3c(c1OCC)C(=O)C=CC3=O)C2=O gave a pIC50 (A-375) of 5.97, a pIC50 (HEp-2) of 5.62 and a pIC50 [1] of 6.24. The pIC50 (PBMC) was 4.26.

With COc1cc(C)cc2c1C(=O)C=C(c1c(C)cc3c(c1OC)C(=O)C=CC3=O)C2=O the pIC50 (A-375) was 6.70, the pIC50 (HEp-2) was 6.41 and the pIC50 [1] was 6.19. It also gave a pIC50 (PBMC) of 4.27.

For COc1cccc2c1C(=O)c1c(O)c3c(c(O)c1C2=O)C[C@@](O)(C(=O)CO)C[C@@H]3O[C@H]1C[C@H](N)[C@H](O)[C@H](C)O1 [DOXORUBICIN], the pIC50 (A-375) was 8.00, the pIC50 (HEp-2) was 6.38 and the pIC50 [1] was < 5.00. It also gave a pIC50 (PBMC) of 4.81.

CCOc1cc(C)cc2c1C(=O)C=C(c1c(C)cc3c(c1OCC)C(=O)C(NCCO)=CC3=O)C2=O showed a pIC50 (A-375) of 7.15, a pIC50 (HEp-2) of 6.07 and a pIC50 [1] of 7.52. For the same compound, the pIC50 (PBMC) was 4.18.

Work on COc1cc(C)cc2c1C(=O)C=C(c1c(C)cc3c(c1OC)C(=O)C(SCCO)=CC3=O)C2=O yielded a pIC50 (A-375) of 6.72, a pIC50 (HEp-2) of 5.76 and a pIC50 [1] of 6.59. For the same compound, the pIC50 (PBMC) was 4.02.
